Key:
IDO1 = biological target: T1, IDO1 (Homo sapiens, UniProt P14902); assay: IDO1 cell-based assay (HeLa cells, IFNgamma-induced, N-formylkynurenine/L-tryptophan by RFMS); settings: 10 ng/mL IFNgamma, 24 hours
T1 construct: endogenous in cells; host or cells: HeLa cells (ATCC), IFNgamma-induced
Outline: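 HeLa cells stimulated with 10 ng/mL IFNgamma and exposed to compound (0.5% DMSO final) for 24 h at 37 °C. Conditioned media deproteinized, then N-formylkynurenine and L-tryptophan quantified by RapidFire MS with deuterated tryptophan internal standard; IC50 by curve fitting. Viability checked by CellTiter-Glo.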

mouse IDO1 = biological target: T2, mouse IDO1 (Mus musculus, UniProt P28776); assay: Mouse IDO1 cell-based assay (PANC02 cells, mouse IFNgamma-induced, N-formylkynurenine/L-tryptophan by RFMS); settings: 30 ng/mL mouse IFNgamma, 48 hours
T2 construct: The murine PANC02 pancreatic ductal adenocarcinoma cell line was routinely maintained in DMEM media; endogenous in cells; host or cells: PANC02 murine pancreatic ductal adenocarcinoma cells, induced with mouse IFNgamma
T2 sequence (P28776 whole entry): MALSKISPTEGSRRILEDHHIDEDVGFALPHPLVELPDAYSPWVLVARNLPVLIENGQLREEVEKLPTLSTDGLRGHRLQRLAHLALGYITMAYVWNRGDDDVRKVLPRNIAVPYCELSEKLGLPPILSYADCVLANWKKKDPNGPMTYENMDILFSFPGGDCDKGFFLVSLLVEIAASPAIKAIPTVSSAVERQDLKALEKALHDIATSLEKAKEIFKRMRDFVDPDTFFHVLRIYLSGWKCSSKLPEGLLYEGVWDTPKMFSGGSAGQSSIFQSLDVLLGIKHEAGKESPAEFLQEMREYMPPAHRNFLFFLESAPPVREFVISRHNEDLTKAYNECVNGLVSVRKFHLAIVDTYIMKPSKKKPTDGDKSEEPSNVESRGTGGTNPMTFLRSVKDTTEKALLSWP
Procedure: The murine PANC02 pancreatic ductal adenocarcinoma cell line was routinely maintained in DMEM media containing 10% FBS. Cells (3,000/well) were seeded onto a 384 well plate in 50 μl of media and incubated at 37° C., 5% CO2 overnight. Cell media was aspirated, fresh media containing 30 ng/mL mouse IFNgamma (Gibco Life Technologies, cat #PMC4031) was added, and cells were incubated in absence or presence of various concentrations of compounds (final 0.5% DMSO) for 48 hours at 37° C., 5% CO2. Aliquots of the cell conditioned media was removed from the cell plate, and mixed with equal volume of 200 mM ZnSO4 to precipitate media containing protein. Two volumes of acetonitrile were added by mixing, and samples were then centrifuged at 2250G for 20 minutes at 4° C. Aliquots of the supernatant were diluted 1:10 in 0.1% formic acid containing 3 μM of deuterated Tryptophan as an internal standard.
Samples were analyzed via RFMS to quantify N-Formyl Kynurenine (AUC) and L-tryptophan (AUC). A C18 cartridge was used with mobile phases of 0.1% Formic Acid and 80% ACN/0.1% Formic Acid under isocratic conditions. Dose-response curves were analyzed using IC50 regression curve fitting (GeneData Screener). Curves were plotted as percent of control and normalized by high controls without inhibitor (100%), and low controls (0%) containing 1 μM of epacadostat. Cell viability was also assessed using the Cell Titer Glo Kit (Promega) following manufacture recommendation.

T1 sequence (P14902 whole entry): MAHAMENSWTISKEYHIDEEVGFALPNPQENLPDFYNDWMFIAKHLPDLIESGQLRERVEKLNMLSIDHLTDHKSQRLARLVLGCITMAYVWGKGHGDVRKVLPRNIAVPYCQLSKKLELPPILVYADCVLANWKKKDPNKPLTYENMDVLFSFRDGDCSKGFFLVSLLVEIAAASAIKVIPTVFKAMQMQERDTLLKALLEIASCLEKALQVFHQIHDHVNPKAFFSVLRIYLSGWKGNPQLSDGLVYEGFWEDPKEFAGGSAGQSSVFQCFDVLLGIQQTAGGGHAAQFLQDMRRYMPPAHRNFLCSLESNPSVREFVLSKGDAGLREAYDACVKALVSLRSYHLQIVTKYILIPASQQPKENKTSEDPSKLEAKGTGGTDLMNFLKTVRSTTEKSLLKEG

| SMILES | IC50 (IDO1) | IC50 (mouse IDO1) |
| --- | --- | --- |
| CCC(NC(=O)c1ccc(Cl)cc1)[C@H]1[C@@H]2C[C@@H](NC(=O)c3cccnc3C)C[C@@H]21 (stereo partly drawn) [Compound 223, N-((1R,3s,5S,6r)-6-(1-(4-chlorobenzamido)propyl)bicyclo[3.1.0]hexan-3-yl)-2-methylnicotinamide] | < 200 nM | > 5000 nM |
| CCC(NC(=O)c1ccc(Cl)cc1)[C@H]1[C@@H]2C[C@@H](NC(=O)c3cncc(Cl)n3)C[C@@H]21 (stereo partly drawn) [Compound 150, 6-chloro-N-((1R,3s,5S,6r)-6-(1-(4-chlorobenzamido)propyl)bicyclo[3.1.0]hexan-3-yl)pyrazine-2-carboxamide] | < 200 nM | 2000 to 5000 nM |
| CCC(NC(=O)c1ccc(Cl)cc1)[C@H]1[C@@H]2C[C@@H](C(C#N)c3ccccc3)C[C@@H]21 (stereo partly drawn) [Compound 166, 4-chloro-N-(1-((1R,3s,5 S,6r)-3-(cyano(phenyl)methyl)bicyclo[3.1.0]hexan-6-yl)propyl) benzamide] | < 200 nM | < 500 nM |
| CCC(NC(=O)c1ccc(Cl)cc1)[C@H]1[C@@H]2C[C@@H](n3cc4cccc(F)c4n3)C[C@@H]21 (stereo partly drawn) [Compound 205, 4-chloro-N-(1-((1R,3s,5S,6r)-3-(7-fluoro-2H-indazol-2-yl)bicyclo[3.1.0]hexan-6-yl)propyl)benzamide] | < 200 nM | < 500 nM |
| CCC(NC(=O)c1ccc(Cl)cc1)[C@H]1[C@@H]2C[C@@H](N3C(=O)c4ccccc4C3=O)C[C@@H]21 (stereo partly drawn) [Compound 161, 4-chloro-N-(1-((1R,3s,5S,6r)-3-(1,3-dioxoisoindolin-2-yl)bicyclo[3.1.0]hexan-6-yl)propyl)benzamide] | < 200 nM | 500 to 2000 nM |
| CCC(NC(=O)c1ccc(Cl)cc1)[C@H]1[C@@H]2C[C@@H](NC(=O)N(C)c3ccccn3)C[C@@H]21 (stereo partly drawn) [Compound 189, 4-chloro-N-(1-((1R,3s, 5S, 6r)-3-(3-methyl-3-(pyridin-2-yl)ureido)bicyclo[3.1.0]hexan-6-yl)propyl)benzamide] | < 200 nM | 500 to 2000 nM |
| CCC(NC(=O)c1ccc(Cl)cc1)[C@H]1[C@@H]2C[C@H](n3cc(COC)nn3)C[C@@H]21 (stereo partly drawn) [Compound 214, 4-chloro-N-(1-((1R,3r,5S,6r)-3-(4-(methoxymethyl)-1H-1,2,3-triazol-1-yl)bicyclo[3.1.0]hexan-6-yl)propyl)benzamide] | < 200 nM | < 500 nM |
| CCC(NC(=O)c1ccc(Cl)cc1)[C@H]1[C@@H]2C[C@@H](NC(C(=O)NC)c3ccccc3)C[C@@H]21 (stereo partly drawn) [Compound 224, 4-chloro-N-(1-((1R,3s,5S,6r)-3-((2-(methylamino)-2-oxo-1-phenylethyl)amino)bicyclo[3.1.0]hexan-6-yl)propyl)benzamide] | 2000 to 5000 nM | > 5000 nM |
| CCC(NC(=O)c1ccc(Cl)cc1)[C@H]1[C@@H]2C[C@@H](n3nc4cc(F)cc(F)c4n3)C[C@@H]21 (stereo partly drawn) [Compound 213, 4-chloro-N-(1-((1R,3s,5S,6r)-3-(4,6-difluoro-2H-benzo[d][1,2,3]triazol-2-yl)bicyclo[3.1.0]hexan-6-yl)propyl)benzamide] | < 200 nM | 500 to 2000 nM |
| CCC(NC(=O)c1ccc(Cl)cc1)[C@H]1[C@@H]2C[C@@H](NC(=O)c3cc(C(F)(F)F)ccn3)C[C@@H]21 (stereo partly drawn) [Compound 225, N-((1R,3s,5S,6r)-6-(1-(4-chlorobenzamido)propyl)bicyclo[3.1.0]hexan-3-yl)-4-(trifluoromethyl)picolinamide] | < 200 nM | 2000 to 5000 nM |
| CCC(NC(=O)c1ccc(Cl)cc1)[C@H]1[C@@H]2C[C@@H](n3ncc4ccc(F)cc43)C[C@@H]21 (stereo partly drawn) [Compound 162, 4-chloro-N-(1-((1R,3s,5S,6r)-3-(6-fluoro-1H-indazol-1-yl)bicyclo[3.1.0]hexan-6-yl)propyl)benzamide] | < 200 nM | 500 to 2000 nM |
| CCC(NC(=O)c1ccc(Cl)cc1)[C@H]1[C@@H]2C[C@@H](n3nnc4ccc(Br)cc43)C[C@@H]21 (stereo partly drawn) [Compound 178, N-(1-((1R,3s,5S,6r)-3-(6-bromo-1H-benzo[d][1,2,3]triazol-1-yl)bicyclo[3.1.0]hexan-6-yl)propyl)-4-chlorobenzamide] | < 200 nM | < 500 nM |
| CCC(NC(=O)c1ccc(Cl)cc1)[C@H]1[C@@H]2C[C@@H](n3cc4ccc(F)cc4n3)C[C@@H]21 (stereo partly drawn) [Compound 163, 4-chloro-N-(1-((1R,3s,5S,6r)-3-(6-fluoro-2H-indazol-2-yl)bicyclo[3.1.0]hexan-6-yl)propyl)benzamide] | < 200 nM | < 500 nM |

More lines, now with the values ahead:

| IC50 (IDO1) | IC50 (mouse IDO1) | SMILES |
| --- | --- | --- |
| < 200 nM | 2000 to 5000 nM | CCC(NC(=O)c1ccc(Cl)cc1)[C@H]1[C@@H]2C[C@@H](Oc3ncnc4cc(Cl)ccc34)C[C@@H]21 (stereo partly drawn) [Compound 253, 4-chloro-N-(1-((1R,3s,5S,6r)-3-((7-chloroquinazolin-4-yl)oxy)bicyclo[3.1.0]hexan-6-yl)propyl)benzamide] |
| > 5000 nM | > 5000 nM | O=C(NCc1ccc(Cl)cc1)[C@H]1[C@@H]2CN(c3ncnc4ccc(F)cc34)C[C@@H]21 [Compound 251, (1R,5S,6r)-N-(4-chlorobenzyl)-3-(6-fluoroquinazolin-4-yl)-3-azabicyclo[3.1.0]hexane-6-carboxamide] |
| < 200 nM | 500 to 2000 nM | CCC(NC(=O)c1ccc(Cl)cc1)[C@H]1[C@@H]2C[C@@H](n3cnc(C4CC4)c3)C[C@@H]21 (stereo partly drawn) [Compound 261, 4-chloro-N-(1-((1R,3s, 5S, 6r)-3-(4-cyclopropyl-1H-imidazol-1-yl)bicyclo[3.1.0]hexan-6-yl)propyl)benzamide] |
| < 200 nM | 500 to 2000 nM | CCC(NC(=O)c1ccc(Cl)cc1)[C@H]1[C@@H]2C[C@@H](Nc3ccc(F)cn3)C[C@@H]21 (stereo partly drawn) [Compound 227, 4-chloro-N-(1-((R, 3s, 5S, 6r)-3-((5-fluoropyridin-2-yl)amino)bicyclo[3.1.0]hexan-6-yl)propyl)benzamide] |
| < 200 nM | < 500 nM | CCC(NC(=O)c1ccc(Cl)cc1)[C@@H]1[C@H]2C=C(c3cncc(C(F)(F)F)c3)C[C@H]21 (stereo partly drawn) [Compound 254, 4-chloro-N-(1-((1R,5R,6S)-3-(5-(trifluoromethyl)pyridin-3-yl)bicyclo[3.1.0]hex-2-en-6-yl)propyl)benzamide] |
| > 5000 nM | > 5000 nM | O=C(Nc1ccc(Cl)cc1)[C@@H]1[C@@H]2CN(c3ncnc4ccc(F)cc34)C[C@@H]21 [Compound 250, (1R,5S,6s)-N-(4-chlorophenyl)-3-(6-fluoroquinazolin-4-yl)-3-azabicyclo[3.1.0]hexane-6-carboxamide] |
| 2000 to 5000 nM | > 5000 nM | CCC(NC(=O)c1ccc(Cl)cc1)[C@H]1[C@@H]2C[C@@H](n3cc(N)nn3)C[C@@H]21 (stereo partly drawn) [Compound 239, N-(1-((1R,3s,5S,6r)-3-(4-amino-1H-1,2,3-triazol-1-yl)bicyclo[3.1.0]hexan-6-yl)propyl)-4-chlorobenzamide] |
| < 200 nM | 500 to 2000 nM | CCC(NC(=O)c1ccc(Cl)cc1)[C@H]1[C@@H]2C[C@@H](Nc3ncc(F)cc3[N+](=O)[O-])C[C@@H]21 (stereo partly drawn) [Compound 236, 4-chloro-N-(1-((1R,3s,5S,6r)-3-((5-fluoro-3-nitropyridin-2-yl)amino)bicyclo[3.1.0]hexan-6-yl)propyl)benzamide] |
